Reference: patent US10251942B2, “Immunity-inducing agent” (TORAY INDUSTRIES, INC., priority 2009, dated 2019)

Tests used:
[1] = test system: colon cancer cell line CT26; assay: Anti-tumor effect of recombinant murine PDS5A protein in tumor-bearing mouse, therapeutic model, CT26; assay type: in vivo, Balb/c mice
Protocol: (§1) The same experiment was carried out also for a colon cancer model. The colon cancer cell line CT26 was subcutaneously transplanted to Balb/c mice (7 weeks old, male, purchased from Japan SLC) in an amount of 1×10^6 cells. When the tumor volume reached an average of 50 to 100 mm^3 (typically 7 days after the inoculation of the tumor), the mice were randomly divided into groups each of which contains 10 individuals, and subjected to evaluation of the anti-tumor effect of the recombinant murine PDS5A protein (therapeutic model). With 100 μg (0.5 ml) of the recombinant murine PDS5A protein purified as described above, 50 μg of poly I:C was mixed to prepare a therapeutic agent for cancer, and this therapeutic agent was subcutaneously administered to the tumor-bearing mice a total of 3 times at intervals of 1 week. […] On the other hand, in the negative control group to which PBS(−) was administered and the group to which poly I:C alone (50 μg) was administered, the mean tumor volumes on Day 24 after the administration were 1449 mm^3 and 835 mm^3, respectively.

[2] = test system: colon cancer cell line CT26; assay: Anti-tumor effect of recombinant murine PDS5A protein, prophylactic model, CT26; assay type: in vivo, Balb/c mice
Protocol: (§2) Further, a therapeutic agent for cancer wherein 100 μg (0.5 ml) of the recombinant murine PDS5A protein and 50 μg poly I:C were mixed was prepared, and subcutaneously administered to Balb/c mice a total of 3 times at intervals of 1 week, followed by transplantation of 1×10^6 CT26 cells to the mice and evaluation of the anti-tumor effect (prophylactic model). Ten individuals were included in each group, and, as controls for comparison, a negative control group to which PBS(−) was administered and a group to which poly I:C alone (50 μg) was administered were provided. […] On the other hand, in the negative control group to which PBS(−) was administered and the group to which poly I:C alone (50 μg) was administered, the mean tumor volumes on Day 31 after the administration were 1781 mm^3 and 1675 mm^3, respectively.

[3] = test system: murine neuroblastoma cell line N2a; assay: Anti-tumor effect of recombinant murine PDS5A protein in tumor-bearing mouse, therapeutic model, N2a; assay type: in vivo, A/J mice
Protocol: as §1, with “murine neuroblastoma” for “same experiment was carried out also for a colon cancer model. The colon cancer”, “N2a” for “CT26”, “A/J” for “Balb/c”, “31” for “24”, “1657” for “1449”, “932” for “835”

[4] = test system: murine neuroblastoma cell line N2a; assay: Anti-tumor effect of recombinant murine PDS5A protein, prophylactic model, N2a; assay type: in vivo, A/J mice
Protocol: as §2, with “A/J” for “Balb/c”, “N2a” for “CT26”, “40” for “31”, “1989” for “1781”, “1843” for “1675”

[5] = Day 31 after the administration, poly I:C alone 50 μg

Molecule poly I:C [reference compound] has a mean tumor volume ([1]; Day 24 after the administration, poly I:C alone 50 μg) of 835 mm^3, a mean tumor volume [2, 5] of 1675 mm^3 and a mean tumor volume [3, 5] of 932 mm^3. The mean tumor volume ([4]; Day 40 after the administration, poly I:C alone 50 μg) was 1843 mm^3.

B1: recombinant murine PDS5A protein: full-length murine PDS5A (SEQ ID NO:6) expressed in E. coli, His tag cleaved; given mixed with poly I:C (protein, listed as Mus musculus)
chain: MDFTQPKPATALCGVVSADGKIAYPPGVKEITDKITTDEMIKRLKMVVKTFMDMDQDSEDEKQQYLPLALHLASEFFLRNPNKDVRLLVACCLADIFRIYAPEAPYTSHDKLKDIFLFITRQLKGLEDTKSPQFNRYFYLLENLAWVKSYNICFELEDCNEIFIQLFRTLFSVINNSHNTKVQMHMLDLMSSIIMEGDGVTQELLDSILINLIPAHKNLNKQSFDLAKVLLKRTVQTIEACIANFFNQVLVLGRSSVSDLSEHVFDLIQELFAIDPQLLLSVMPQLEFKLKSNDGEERLAVVRLLAKLFGSKDSDLATQNRPLWQCFLGRFNDIHVPVRLESVKFASHCLMNHPDLAKDLTEYLKVRSHDPEEAIRHDVIVTIITAAKRDLALVNDQLLGFVRERTLDKRWRVRKEAMMGLAQLYKKYCLHGEAGKEAAEKVSWIKDKLLHIYYQNSIDDKLLVEKIFAQYLVPHNLETEERMKCLYYLYASLDPNAVKALNEMWKCQNMLRSHVRELLDLHKQPTSEANCSAMFGKLMTIAKNLPDPGKAQDFVKKFNQVLGDDEKLRSQLELLISPTCSCKQADVCVREIARKLANPKQPTNPFLEMVKFLLERIAPVHIDSEAISALVKLMNKSIEGTADDEEEGVSPDSAIRSGLELLKVLSFTHPTSFHSAETYESLLQCLRMEDDKVAEAAIQIFRNTGHKIETDLPQIRSTLIPILHQKAKRGTPHQAKQAVHCIHAIFSNKEVQLAQIFEPLSRSLNADVPEQLITPLVSLGHISMLAPDQFASPMKSVVANFIVKDLLMNDRSTGEKNGKLWSPDEEVSPEVLAKVQAIKLLVRWLLGMKNNQSKSANSTLRLLSAMLVSEGDLTEQKRISKSDMSRLRLAAGSAIMKLAQEPCYHEIITPEQFQLCALVINDECYQVRQIFAQKLHKALVKLLLPLEYMAIFALCAKDPVKERRAHARQCLLKNISIRREYIKQNPMATEKLLSLLPEYVVPYMIHLLAHDPDFTRSQDVDQLRDIKECLWFMLEVLMTKNENNSHAFMKKMAENIKLTRDAQSPDESKTNEKLYTVCDVALCVINSKSALCNADSPKDPVLPMKFFTQPEKDFCNDKSYISEETRVLLLTGKPKPTGVLGTVNKPLSATGRKPYVRSAGTETGSNINANSELSPSAGSRSREQSSEASETGVSENEENPVRIISVTPVKNIDTVKNKEINSDQSTQGNISSDRGKKRIVTAAGAENIQKPDEKVDESGPPAPSKPRRGRRPKSESQGNATKNDDLNKPVSKGRKRAAGSQESLEAGNAKAPKLQDGAKKAVPAERQIDLQR
modifications: mixed with poly I:C
B1 was tested, and the tumor outcome ([1]; Day 24, 100 μg protein mixed with 50 μg poly I:C, subcutaneous, 3 times at intervals of 1 week, PBS(−) group 1449 mm^3) was “complete regression of the tumor”, the tumor outcome ([2]; Day 31, 100 μg protein mixed with 50 μg poly I:C, subcutaneous, 3 times at intervals of 1 week before CT26 transplantation, PBS(−) group 1781 mm^3) was “no development of a tumor” and the tumor outcome ([3]; Day 31, 100 μg protein mixed with 50 μg poly I:C, subcutaneous, 3 times at intervals of 1 week, PBS(−) group 1657 mm^3) was “complete regression of the tumor”. The tumor outcome ([4]; Day 40, 100 μg protein mixed with 50 μg poly I:C, subcutaneous, 3 times at intervals of 1 week before N2a transplantation, PBS(−) group 1989 mm^3) was “no development of a tumor”.
